This passage reports IC50 results from patent US11814367B2, “Inhibitors of glycogen synthase 1 (GYS1) and methods of use thereof” (Maze Therapeutics, Inc., priority 2021, dated 2023).

Bounds are passed on as bounds.

For test [1], the target named is hGYS1 enzyme (recombinant hGYS1/GN1 protein) (Homo sapiens (Human), UniProt P13807). Kind of test: GYS1 coupled enzyme assay (PK/LDH). The format is biochemical. The following applies: hGYS1/GN1 50 nM, UDP-Glucose 0.8 mM, G6P 1 mM; geometric mean of at least 2 runs.
Test [2] deals with hGYS1 enzyme / glycogen synthesis in HeLa cells. The experiment in a line: GYS1 cell based assay (glycogen synthesis, Glucose-glo). Details: species or system human. The conditions noted are these: Homo sapiens, 24 h incubation, 20 mM glucose, geometric mean of at least 2 runs. The method in brief: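 HeLa cells starved 24 h in medium containing only 1× Glutamax were plated onto compound in medium with 20 mM glucose (1% DMSO final) for 24 h, 37 °C, 5% CO2. Acid lysates were Tris-quenched, glucoamylase-digested (pH 5.3, 1 h, 37 °C) and read by Glucose-glo luminescence. IC50 came from Hill fits, as geometric mean of ≥2 runs.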

Sequence of hGYS1 enzyme (recombinant hGYS1/GN1 protein) (P13807 whole entry): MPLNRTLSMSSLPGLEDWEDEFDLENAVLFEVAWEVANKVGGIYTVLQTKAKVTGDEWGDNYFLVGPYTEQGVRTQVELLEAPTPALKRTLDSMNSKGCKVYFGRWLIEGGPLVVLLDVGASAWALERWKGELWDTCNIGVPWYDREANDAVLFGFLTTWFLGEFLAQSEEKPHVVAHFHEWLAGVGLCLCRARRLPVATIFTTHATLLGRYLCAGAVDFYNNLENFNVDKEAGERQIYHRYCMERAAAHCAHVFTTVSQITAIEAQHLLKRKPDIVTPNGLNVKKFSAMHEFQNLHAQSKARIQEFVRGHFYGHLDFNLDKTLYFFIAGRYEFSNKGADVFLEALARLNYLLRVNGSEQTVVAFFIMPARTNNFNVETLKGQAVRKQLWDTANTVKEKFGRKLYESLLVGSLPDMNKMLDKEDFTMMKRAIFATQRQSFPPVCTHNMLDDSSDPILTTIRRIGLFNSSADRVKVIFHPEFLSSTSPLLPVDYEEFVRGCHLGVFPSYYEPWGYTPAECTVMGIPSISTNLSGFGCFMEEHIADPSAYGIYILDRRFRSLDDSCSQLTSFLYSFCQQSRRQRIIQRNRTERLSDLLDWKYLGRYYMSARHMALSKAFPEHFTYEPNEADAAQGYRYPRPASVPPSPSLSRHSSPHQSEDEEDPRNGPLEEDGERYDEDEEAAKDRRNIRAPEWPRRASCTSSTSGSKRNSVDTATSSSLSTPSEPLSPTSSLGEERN
Sequence of hGYS1 enzyme (recombinant hGYS1/GN1 protein) (P46976 whole entry partner): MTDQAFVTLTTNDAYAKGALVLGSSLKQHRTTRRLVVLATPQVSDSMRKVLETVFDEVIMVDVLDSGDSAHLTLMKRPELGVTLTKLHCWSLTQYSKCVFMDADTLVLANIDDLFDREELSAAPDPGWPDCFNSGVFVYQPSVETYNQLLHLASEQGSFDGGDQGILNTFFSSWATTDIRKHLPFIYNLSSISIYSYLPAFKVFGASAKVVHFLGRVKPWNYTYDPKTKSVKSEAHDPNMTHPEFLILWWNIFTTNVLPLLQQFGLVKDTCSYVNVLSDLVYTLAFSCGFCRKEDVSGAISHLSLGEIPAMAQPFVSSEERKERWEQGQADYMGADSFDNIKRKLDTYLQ

As for `CCn1cc(CC(=O)N2C[C@H](F)C[C@H]2C(=O)N[C@@H](c2ccccc2)c2ccc(C3CC(F)(F)C3)c(F)n2)ncc1=O` [Compound 527, (2S,4R)-N-[(S)-[5-(3,3-difluorocyclobutyl)-6-fluoropyridin-2-yl](phenyl)methyl]-1-[2-(4-ethyl-5-oxo-4,5-dihydropyrazin-2-yl)acetyl]-4-fluoropyrrolidine-2-carboxamide], the IC50 in test [1] came out at 7 nM; in test [2] (HeLa, 24 h) it was 250 nM.

In the case of `O=C(N[C@@H](c1ccccc1)c1ccc(C2CC(F)(F)C2)c(F)n1)[C@@H]1C[C@@H](F)CN1C(=O)Cc1nc(C(F)(F)F)co1` [Compound 528, (2S,4R)-N-[(S)-[5-(3,3-difluorocyclobutyl)-6-fluoropyridin-2-yl](phenyl)methyl]-4-fluoro-1-{2-[4-(trifluoromethyl)-1,3-oxazol-2-yl]acetyl}pyrrolidine-2-carboxamide], the IC50 turned out to be 15 nM in test [1] and 330 nM in test [2] (HeLa, 24 h).

In the case of `O=C(N[C@@H](c1ccccc1)c1ccc(C2CC(F)(F)C2)c(F)n1)[C@@H]1C[C@@H](F)CN1C(=O)Cc1ncc[nH]c1=O` [Compound 529, (2S,4R)-N-[(S)-[5-(3,3-difluorocyclobutyl)-6-fluoropyridin-2-yl](phenyl)methyl]-4-fluoro-1-[2-(3-oxo-3,4-dihydropyrazin-2-yl)acetyl]pyrrolidine-2-carboxamide], the IC50 in test [1] came out at 16 nM; in test [2] (HeLa, 24 h) it was 1040 nM.

Consider `O=C(N[C@@H](c1ccccc1)c1ccc(C2CC(F)(F)C2)c(F)n1)[C@@H]1C[C@@H](F)CN1C(=O)Cc1c[nH]c(=O)cn1` [Compound 530, (2S,4R)-N-[(S)-[5-(3,3-difluorocyclobutyl)-6-fluoropyridin-2-yl](phenyl)methyl]-4-fluoro-l-[2-(5-oxo-4,5-dihydropyrazin-2-yl)acetyl]pyrrolidine-2-carboxamide], for which the IC50 in test [1] came out at 12 nM; in test [2] (HeLa, 24 h), 910 nM.

As for `CCn1ccnc(CC(=O)N2C[C@H](F)C[C@H]2C(=O)N[C@@H](c2ccccc2)c2ccc(C3CC(F)(F)C3)c(F)n2)c1=O` [Compound 531, (2S,4R)-N-[(S)-[5-(3,3-difluorocyclobutyl)-6-fluoropyridin-2-yl](phenyl)methyl]-1-[2-(4-ethyl-3-oxo-3,4-dihydropyrazin-2-yl)acetyl]-4-fluoropyrrolidine-2-carboxamide], the IC50 was 8 nM in test [1] and 60 nM in test [2] (HeLa, 24 h).

As for `O=C(N[C@@H](c1ccccc1)c1ccc(C2CC(F)(F)C2)cn1)[C@@H]1C[C@@H](F)CN1C(=O)Cc1nc(C(F)(F)F)co1` [Compound 543, (2S,4R)-N-[(S)-[5-(3,3-difluorocyclobutyl)pyridin-2-yl](phenyl)methyl]-4-fluoro-1-{2-[4-(trifluoromethyl)-1,3-oxazol-2-yl]acetyl}pyrrolidine-2-carboxamide], the IC50 in test [1] worked out at 49 nM; in test [2] (HeLa, 24 h) it was 610 nM.

In the case of `O=C(N[C@H](c1ccccc1)c1ccc(C2CC(F)(F)C2)c(F)c1)[C@@H]1C[C@@H](F)CN1C(=O)CNC(=O)N1CCC1` [Compound 545, (2S,4R)-1-((azetidine-1-carbonyl)glycyl)-N—((R)-(4-(3,3-difluorocyclobutyl)-3-fluorophenyl)(phenyl)methyl)-4-fluoropyrrolidine-2-carboxamide], the IC50 in test [1] is 1680 nM; in test [2] (HeLa, 24 h), greater than 30000 nM.

For `O=C(N[C@@H](c1ccccc1)c1ccc(C2CC(F)(F)C2)c(F)c1)[C@@H]1C[C@@H](F)CN1C(=O)Cc1nc(C(F)(F)F)co1` [Compound 555, (2S,4R)-N-[(S)-[4-(3,3-difluorocyclobutyl)-3-fluorophenyl](phenyl)methyl]-4-fluoro-1-{2-[4-(trifluoromethyl)-1,3-oxazol-2-yl]acetyl}pyrrolidine-2-carboxamide], the IC50 worked out at 97 nM in test [1] and 660 nM in test [2] (HeLa, 24 h).

Consider `Cc1cn(CC(=O)N2C[C@H](F)C[C@H]2C(=O)N[C@H](c2ccccc2)c2ccc(C3(C)CC3)c(F)c2)c(=O)[nH]c1=O` [Compound 557, (2S,4R)-4-fluoro-N—((R)-(3-fluoro-4-(1-methylcyclopropyl)phenyl)(phenyl)methyl)-1-(2-(5-methyl-2,4-dioxo-3,4-dihydropyrimidin-1(2H)-yl)acetyl)pyrrolidine-2-carboxamide], for which the IC50 in test [1] was found to be 424 nM; in test [2] (HeLa, 24 h), 5780 nM.

With `CC1(c2ccc([C@@H](NC(=O)[C@@H]3C[C@@H](F)CN3C(=O)Cc3cnn[nH]3)c3cccnc3)cc2F)CC1` [Compound 559, (2S,4R)-4-fluoro-N-[(R)-[3-fluoro-4-(1-methylcyclopropyl)phenyl](pyridin-3-yl)methyl]-1-[2-(1H-1,2,3-triazol-5-yl)acetyl]pyrrolidine-2-carboxamide], the IC50 in test [1] was 1580 nM; in test [2] (HeLa, 24 h), greater than 22100 nM.

Take `CC1(c2ccc([C@@H](NC(=O)[C@@H]3C[C@@H](F)CN3C(=O)Cc3cc4ccccc4[nH]3)c3ccccc3)nc2F)CC1` [Compound 598, (2S,4R)-4-fluoro-N-[(S)-[6-fluoro-5-(1-methylcyclopropyl)pyridin-2-yl](phenyl)methyl]-1-[2-(1H-indol-2-yl)acetyl]pyrrolidine-2-carboxamide]: the IC50 is 153 nM in test [1] and 2180 nM in test [2] (HeLa, 24 h).

Consider `CC(C)(C)OC(=O)n1c(CC(=O)N2C[C@H](F)C[C@H]2C(=O)N[C@@H](c2ccccc2)c2ccc(C3(C)CC3)c(F)n2)cc2ccccc21` [Compound 601, tert-butyl 2-{2-[(2S,4R)-4-fluoro-2-{[(S)-[6-fluoro-5-(1-methylcyclopropyl)pyridin-2-yl](phenyl)methyl]carbamoyl}pyrrolidin-1-yl]-2-oxoethyl}-1H-indole-1-carboxylate], for which the IC50 was determined as 34 nM in test [1] and 710 nM in test [2] (HeLa, 24 h).

For `COC(=O)NCc1cccc([C@H](NC(=O)[C@@H]2C[C@@H](F)CN2C(=O)Cc2cnn[nH]2)c2ccc(C(C)C)c(F)n2)c1` [Compound 638, methyl (3-((S)-((2S,4R)-1-(2-(1H-1,2,3-triazol-5-yl)acetyl)-4-fluoropyrrolidine-2-carboxamido)(6-fluoro-5-isopropylpyridin-2-yl)methyl)benzyl)carbamate], the IC50 was 399 nM in test [1] and greater than 23400 nM in test [2].

`CC(=O)NCc1cccc([C@H](NC(=O)[C@@H]2C[C@@H](F)CN2C(=O)Cc2cnn[nH]2)c2ccc(C(C)C)c(F)n2)c1` [Compound 655, (2S,4R)-N-[(S)-[3-(acetamidomethyl)phenyl][6-fluoro-5-(propan-2-yl)pyridin-2-yl]methyl]-4-fluoro-1-[2-(1H-1,2,3-triazol-5-yl)acetyl]pyrrolidine-2-carboxamide]: the IC50 is 1010 nM in test [1] and greater than 30000 nM in test [2] (HeLa, 24 h).

For `CNC(=O)NCc1cccc([C@H](NC(=O)[C@@H]2C[C@@H](F)CN2C(=O)Cc2cnn[nH]2)c2ccc(C(C)C)c(F)n2)c1` [Compound 656, (2S,4R)-4-fluoro-N-[(S)-[6-fluoro-5-(propan-2-yl)pyridin-2-yl](3-{[(methylcarbamoyl)amino]methyl}phenyl)methyl]-1-[2-(1H-1,2,3-triazol-5-yl)acetyl]pyrrolidine-2-carboxamide], the IC50 came to 1300 nM in test [1] and 10800 nM in test [2] (HeLa, 24 h).

`CC1(c2ccc([C@H](NC(=O)[C@@H]3C[C@@H](F)CN3C(=O)Cc3cnn[nH]3)c3ccccc3)cc2F)CCC1` [Compound 684, (2S,4R)-4-fluoro-N-[(R)-[3-fluoro-4-(1-methylcyclobutyl)phenyl](phenyl)methyl]-1-[2-(1H-1,2,3-triazol-5-yl)acetyl]pyrrolidine-2-carboxamide]: the IC50 in test [1] stood at 1330 nM; in test [2] (HeLa, 24 h), 13800 nM.

In the case of `CC(C)c1ccc([C@H](NC(=O)[C@@H]2C[C@@H](F)CN2C(=O)Cc2cnn[nH]2)c2cccc(-c3ccn[nH]3)c2)nc1F` [Compound 687, (2S,4R)-1-(2-(1H-1,2,3-triazol-5-yl)acetyl)-N—((R)-(3-(1H-pyrazol-5-yl)phenyl)(6-fluoro-5-isopropylpyridin-2-yl)methyl)-4-fluoropyrrolidine-2-carboxamide], the IC50 in test [1] is 3820 nM; in test [2] (HeLa, 24 h), greater than 30000 nM.

With `COc1nc(CC(=O)N2C[C@H](F)C[C@H]2C(=O)N[C@@H](c2ccccc2)c2ccc(C(C)C)cn2)nn1C` [Compound 712, (2S,4R)-4-fluoro-1-[2-(5-methoxy-1-methyl-1H-1,2,4-triazol-3-yl)acetyl]-N-[(S)-phenyl[5-(propan-2-yl)pyridin-2-yl]methyl]pyrrolidine-2-carboxamide], the IC50 worked out at 15 nM in test [1] and 330 nM in test [2] (HeLa, 24 h).

As to `CCN(CC)c1cnnn1CC(=O)N1C[C@H](F)C[C@H]1C(=O)N[C@@H](c1ccccc1)c1ccc(C(C)C)cn1` [Compound 713, (2S,4R)-1-{2-[5-(diethylamino)-1H-1,2,3-triazol-1-yl]acetyl}-4-fluoro-N-[(S)-phenyl[5-(propan-2-yl)pyridin-2-yl]methyl]pyrrolidine-2-carboxamide], the IC50 in test [1] was 74 nM; in test [2] (HeLa, 24 h), 860 nM.

With `CC(C)c1ccc([C@@H](NC(=O)[C@@H]2C[C@@H](F)CN2C(=O)Cn2nncc2N2CC(F)(F)C2)c2ccccc2)nc1` [Compound 714, (2S,4R)-1-{2-[5-(3,3-difluoroazetidin-1-yl)-1H-1,2,3-triazol-1-yl]acetyl}-4-fluoro-N-[(S)-phenyl[5-(propan-2-yl)pyridin-2-yl]methyl]pyrrolidine-2-carboxamide], the IC50 in test [1] is 45 nM; in test [2] (HeLa, 24 h) it was 1390 nM.

For the compound `CN(C)c1cnn(CC(=O)N2C[C@H](F)C[C@H]2C(=O)N[C@H](c2ccccc2)c2ccc(C3CC3)c(F)n2)n1` [Compound 717, (2S,4R)-N-[(R)-(5-cyclopropyl-6-fluoropyridin-2-yl)(phenyl)methyl]-1-{2-[4-(dimethylamino)-2H-1,2,3-triazol-2-yl]acetyl}-4-fluoropyrrolidine-2-carboxamide], the IC50 is 1480 nM in test [1] and greater than 25800 nM in test [2] (HeLa, 24 h).

Usually IC50 stands for the concentration at which inhibition is half-maximal.
